Assay [1] deals with GDP-bound NRAS wild-type protein (Homo sapiens, UniProt P01111). Kind of assay: Binding to NRAS by surface plasmon resonance (SPR), Single Cycle Kinetics. The conditions noted are these: SPR, GDP-bound NRAS wild-type vs GDP-bound KRAS wild-type.
For assay [2], the target named is GDP-bound HRAS wild-type protein (Homo sapiens, UniProt P01112). The assay can be described thus: Binding to HRAS by surface plasmon resonance (SPR), Single Cycle Kinetics. The settings on record: SPR, GDP-bound HRAS wild-type vs GDP-bound KRAS wild-type. Background: SPR reads the build-up and loss of mass on a sensor chip optically.

Each structure is given as a SMILES string.

GDP-bound NRAS wild-type protein, sequence (P01111 whole entry): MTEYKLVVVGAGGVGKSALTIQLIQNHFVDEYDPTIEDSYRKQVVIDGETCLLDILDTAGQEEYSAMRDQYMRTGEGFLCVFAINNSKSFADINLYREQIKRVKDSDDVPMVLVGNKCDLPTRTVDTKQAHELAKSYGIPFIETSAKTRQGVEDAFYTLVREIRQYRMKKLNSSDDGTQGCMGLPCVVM
GDP-bound HRAS wild-type protein, sequence (P01112 whole entry): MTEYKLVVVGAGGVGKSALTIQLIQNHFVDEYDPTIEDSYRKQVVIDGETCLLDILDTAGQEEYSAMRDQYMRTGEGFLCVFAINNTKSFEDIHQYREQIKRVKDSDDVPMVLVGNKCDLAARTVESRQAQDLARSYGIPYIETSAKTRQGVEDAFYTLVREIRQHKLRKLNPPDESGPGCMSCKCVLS

For the compound `CCOC[C@H]1C(=O)N[C@@H]([C@@H](C)CC)C(=O)N(C)CC(=O)N(C)[C@H]2C/C=C\CCN(C2=O)[C@@H](CC2CCCCC2)C(=O)N(C)CC(=O)N[C@@H](CCc2ccc(C(F)(F)F)c(OC)c2)C(=O)N2C[C@@H](C)C[C@H]2C(=O)N(C)C2(CCC2)C(=O)N(C)[C@@H](C2CCCC2)C(=O)N(C)[C@H](C(=O)N(C)C)CC(=O)N1C` [PP2371], the “NRAS/KRAS (ratio of KD value with respect to NRAS to KD value with respect to KRAS)” value in assay [1] was “A (a compound having 10 or more and less than 20 is denoted as A)”. In assay [2], the “HRAS/KRAS (ratio of KD value with respect to HRAS to KD value with respect to KRAS)” value is “B (a compound having 3 or more and less than 10 is denoted as B)”.
With `CCC[C@H]1C(=O)N[C@@H]([C@@H](C)CC)C(=O)N(C2CC2)CC(=O)N(C)[C@H]2C/C=C\CCN(C2=O)[C@@H](CC2CCCCC2)C(=O)N(C)CC(=O)N[C@@H](CCc2ccc(C(F)(F)F)c(OC)c2)C(=O)N2C[C@@H](C)C[C@H]2C(=O)N(C)C2(CCC2)C(=O)N(C)[C@@H](C2CCCC2)C(=O)N(C)[C@H](C(=O)N(C)C)CC(=O)N1C` [PP2372], the “NRAS/KRAS (ratio of KD value with respect to NRAS to KD value with respect to KRAS)” value in assay [1] is “A (a compound having 10 or more and less than 20 is denoted as A)”. Further, in assay [2], the “HRAS/KRAS (ratio of KD value with respect to HRAS to KD value with respect to KRAS)” value was “B (a compound having 3 or more and less than 10 is denoted as B)”.
For `CCOC[C@H]1C(=O)N[C@@H]([C@@H](C)CC)C(=O)N(C2CC2)CC(=O)N(C)[C@H]2C/C=C\CCN(C2=O)[C@@H](CC2CCCCC2)C(=O)N(C)CC(=O)N[C@@H](CCc2ccc(C(F)(F)F)c(OC)c2)C(=O)N2C[C@@H](C)C[C@H]2C(=O)N(C)C2(CCC2)C(=O)N(C)[C@@H](C2CCCC2)C(=O)N(C)[C@H](C(=O)N(C)C)CC(=O)N1C` [PP2373], in assay [1], the “NRAS/KRAS (ratio of KD value with respect to NRAS to KD value with respect to KRAS)” value is “A (a compound having 10 or more and less than 20 is denoted as A)”. Moreover, the “HRAS/KRAS (ratio of KD value with respect to HRAS to KD value with respect to KRAS)” value in assay [2] is “A (a compound having 10 or more and less than 20 is denoted as A)”.
For `CCC[C@H]1C(=O)N[C@@H]([C@@H](C)CC)C(=O)N2CCC[C@H]2C(=O)N(C)[C@H]2C/C=C\CCN(C2=O)[C@@H](CC2CCCCC2)C(=O)N(C)CC(=O)N[C@@H](CCc2ccc(C(F)(F)F)c(OC)c2)C(=O)N2C[C@@H](C)C[C@H]2C(=O)N(C)C2(CCC2)C(=O)N(C)[C@@H](C2CCCC2)C(=O)N(C)[C@H](C(=O)N(C)C)CC(=O)N1C` [PP2374], in assay [1], the “NRAS/KRAS (ratio of KD value with respect to NRAS to KD value with respect to KRAS)” value is “A (a compound having 10 or more and less than 20 is denoted as A)”. In addition, the “HRAS/KRAS (ratio of KD value with respect to HRAS to KD value with respect to KRAS)” value in assay [2] is “A (a compound having 10 or more and less than 20 is denoted as A)”.
In the case of `CCOC[C@H]1C(=O)N[C@@H]([C@@H](C)CC)C(=O)N2CCC[C@H]2C(=O)N(C)[C@H]2C/C=C\CCN(C2=O)[C@@H](CC2CCCCC2)C(=O)N(C)CC(=O)N[C@@H](CCc2ccc(C(F)(F)F)c(OC)c2)C(=O)N2C[C@@H](C)C[C@H]2C(=O)N(C)C2(CCC2)C(=O)N(C)[C@@H](C2CCCC2)C(=O)N(C)[C@H](C(=O)N(C)C)CC(=O)N1C` [PP2375], the “NRAS/KRAS (ratio of KD value with respect to NRAS to KD value with respect to KRAS)” value in assay [1] is “A (a compound having 10 or more and less than 20 is denoted as A)”. For the same compound, in assay [2], the “HRAS/KRAS (ratio of KD value with respect to HRAS to KD value with respect to KRAS)” value is “B (a compound having 3 or more and less than 10 is denoted as B)”.
With `CCC[C@H]1C(=O)N[C@@H]([C@@H](C)CC)C(=O)N(C)CC(=O)N(C)[C@H]2C/C=C\CCN(C2=O)[C@@H](CC2CCC(F)(F)CC2)C(=O)N(C)CC(=O)N[C@@H](CCc2ccc(C(F)(F)F)c(OC)c2)C(=O)N2C[C@@H](C)C[C@H]2C(=O)N(C)C2(CCC2)C(=O)N(C)[C@@H](C2CCCC2)C(=O)N(C)[C@H](C(=O)N(C)C)CC(=O)N1C` [PP2376], the “NRAS/KRAS (ratio of KD value with respect to NRAS to KD value with respect to KRAS)” value in assay [1] was “A (a compound having 10 or more and less than 20 is denoted as A)”. Moreover, the “HRAS/KRAS (ratio of KD value with respect to HRAS to KD value with respect to KRAS)” value in assay [2] is “A (a compound having 10 or more and less than 20 is denoted as A)”.
Consider `CCCOC[C@H]1C(=O)N[C@@H]([C@@H](C)CC)C(=O)N(C)CC(=O)N(C)[C@H]2C/C=C\CCN(C2=O)[C@@H](CC2CCC(F)(F)CC2)C(=O)N(C)CC(=O)N[C@@H](CCc2ccc(C(F)(F)F)c(OC)c2)C(=O)N2C[C@@H](C)C[C@H]2C(=O)N(C)C2(CCC2)C(=O)N(C)[C@@H](C2CCCC2)C(=O)N(C)[C@H](C(=O)N(C)C)CC(=O)N1C` [PP2377], for which the “NRAS/KRAS (ratio of KD value with respect to NRAS to KD value with respect to KRAS)” value in assay [1] was “A (a compound having 10 or more and less than 20 is denoted as A)”. The “HRAS/KRAS (ratio of KD value with respect to HRAS to KD value with respect to KRAS)” value in assay [2] is “A (a compound having 10 or more and less than 20 is denoted as A)”.
Turning to `CCC[C@H]1C(=O)N[C@@H]([C@@H](C)CC)C(=O)N(C2CC2)CC(=O)N(C)[C@H]2C/C=C\CCN(C2=O)[C@@H](CC2CCC(F)(F)CC2)C(=O)N(C)CC(=O)N[C@@H](CCc2ccc(C(F)(F)F)c(OC)c2)C(=O)N2C[C@@H](C)C[C@H]2C(=O)N(C)C2(CCC2)C(=O)N(C)[C@@H](C2CCCC2)C(=O)N(C)[C@H](C(=O)N(C)C)CC(=O)N1C` [PP2378], the “NRAS/KRAS (ratio of KD value with respect to NRAS to KD value with respect to KRAS)” value in assay [1] is “B (a compound having 3 or more and less than 10 is denoted as B)”. For the same compound, in assay [2], the “HRAS/KRAS (ratio of KD value with respect to HRAS to KD value with respect to KRAS)” value is “A (a compound having 10 or more and less than 20 is denoted as A)”.
Turning to `CCCOC[C@H]1C(=O)N[C@@H]([C@@H](C)CC)C(=O)N(C2CC2)CC(=O)N(C)[C@H]2C/C=C\CCN(C2=O)[C@@H](CC2CCC(F)(F)CC2)C(=O)N(C)CC(=O)N[C@@H](CCc2ccc(C(F)(F)F)c(OC)c2)C(=O)N2C[C@@H](C)C[C@H]2C(=O)N(C)C2(CCC2)C(=O)N(C)[C@@H](C2CCCC2)C(=O)N(C)[C@H](C(=O)N(C)C)CC(=O)N1C` [PP2379], the “NRAS/KRAS (ratio of KD value with respect to NRAS to KD value with respect to KRAS)” value in assay [1] is “A (a compound having 10 or more and less than 20 is denoted as A)”. In assay [2], the “HRAS/KRAS (ratio of KD value with respect to HRAS to KD value with respect to KRAS)” value was “A (a compound having 10 or more and less than 20 is denoted as A)”.
Take `CCC[C@H]1C(=O)N[C@@H]([C@@H](C)CC)C(=O)N2CCC[C@H]2C(=O)N(C)[C@H]2C/C=C\CCN(C2=O)[C@@H](CC2CCC(F)(F)CC2)C(=O)N(C)CC(=O)N[C@@H](CCc2ccc(C(F)(F)F)c(OC)c2)C(=O)N2C[C@@H](C)C[C@H]2C(=O)N(C)C2(CCC2)C(=O)N(C)[C@@H](C2CCCC2)C(=O)N(C)[C@H](C(=O)N(C)C)CC(=O)N1C` [PP2380]: in assay [1], the “NRAS/KRAS (ratio of KD value with respect to NRAS to KD value with respect to KRAS)” value was “A (a compound having 10 or more and less than 20 is denoted as A)”. For the same compound, the “HRAS/KRAS (ratio of KD value with respect to HRAS to KD value with respect to KRAS)” value in assay [2] was “A (a compound having 10 or more and less than 20 is denoted as A)”.
In the case of `CCCOC[C@H]1C(=O)N[C@@H]([C@@H](C)CC)C(=O)N2CCC[C@H]2C(=O)N(C)[C@H]2C/C=C\CCN(C2=O)[C@@H](CC2CCC(F)(F)CC2)C(=O)N(C)CC(=O)N[C@@H](CCc2ccc(C(F)(F)F)c(OC)c2)C(=O)N2C[C@@H](C)C[C@H]2C(=O)N(C)C2(CCC2)C(=O)N(C)[C@@H](C2CCCC2)C(=O)N(C)[C@H](C(=O)N(C)C)CC(=O)N1C` [PP2381], the “NRAS/KRAS (ratio of KD value with respect to NRAS to KD value with respect to KRAS)” value in assay [1] was “A (a compound having 10 or more and less than 20 is denoted as A)”. In assay [2], the “HRAS/KRAS (ratio of KD value with respect to HRAS to KD value with respect to KRAS)” value was “A (a compound having 10 or more and less than 20 is denoted as A)”.
Consider `CCC[C@H]1C(=O)N[C@@H]([C@@H](C)CC)C(=O)N(C)CC(=O)N(C)[C@H]2C/C=C\CCN(C2=O)[C@@H](Cc2ccc(C(F)(F)F)cc2)C(=O)N(C)CC(=O)N[C@@H](CCc2ccc(C(F)(F)F)c(OC)c2)C(=O)N2C[C@H](OCC)C[C@H]2C(=O)N(C)C2(CCC2)C(=O)N(C)[C@@H](C(CC)CC)C(=O)N(C)[C@H](C(=O)N(C)C)CC(=O)N1C` [PP2382], for which, in assay [1], the “NRAS/KRAS (ratio of KD value with respect to NRAS to KD value with respect to KRAS)” value is “A (a compound having 10 or more and less than 20 is denoted as A)”. In assay [2], the “HRAS/KRAS (ratio of KD value with respect to HRAS to KD value with respect to KRAS)” value was “A (a compound having 10 or more and less than 20 is denoted as A)”.
For the compound `CCOC[C@H]1C(=O)N[C@@H]([C@@H](C)CC)C(=O)N(C)CC(=O)N(C)[C@H]2C/C=C\CCN(C2=O)[C@@H](Cc2ccc(C(F)(F)F)cc2)C(=O)N(C)CC(=O)N[C@@H](CCc2ccc(C(F)(F)F)c(OC)c2)C(=O)N2C[C@H](OCC)C[C@H]2C(=O)N(C)C2(CCC2)C(=O)N(C)[C@@H](C(CC)CC)C(=O)N(C)[C@H](C(=O)N(C)C)CC(=O)N1C` [PP2383], the “NRAS/KRAS (ratio of KD value with respect to NRAS to KD value with respect to KRAS)” value in assay [1] is “A (a compound having 10 or more and less than 20 is denoted as A)”. Besides, the “HRAS/KRAS (ratio of KD value with respect to HRAS to KD value with respect to KRAS)” value in assay [2] was “A (a compound having 10 or more and less than 20 is denoted as A)”.
Take `CC[C@H](C)[C@@H]1NC(=O)[C@H](COC)N(C)C(=O)C[C@@H](C(=O)N(C)C)N(C)C(=O)[C@H](C2CCCC2)N(C)C(=O)C2(CC(C)(C)C2)NC(=O)[C@@H]2C[C@H](C)CN2C(=O)[C@H](CCc2ccc(C(F)(F)F)c(OC)c2)NC(=O)CN(C)C(=O)[C@H](Cc2ccc(C)cc2)N2CC/C=C\C[C@@H](C2=O)N(C)C(=O)CN(C)C1=O` [PP2385]: the “NRAS/KRAS (ratio of KD value with respect to NRAS to KD value with respect to KRAS)” value in assay [1] is “A (a compound having 10 or more and less than 20 is denoted as A)”. Further, in assay [2], the “HRAS/KRAS (ratio of KD value with respect to HRAS to KD value with respect to KRAS)” value is “B (a compound having 3 or more and less than 10 is denoted as B)”.
For `CC[C@H](C)[C@@H]1NC(=O)[C@H](COC)N(C)C(=O)C[C@@H](C(=O)N(C)C)N(C)C(=O)[C@H](C2CCCC2)N(C)C(=O)C2(CC(C)(C)C2)NC(=O)[C@@H]2C[C@H](C)CN2C(=O)[C@H](CCc2ccc(C(F)(F)F)c(OC)c2)NC(=O)CN(C)C(=O)[C@H](Cc2ccc(C)cc2)N2CC/C=C\C[C@@H](C2=O)N(C)C(=O)[C@@H]2C[C@H](C)CN2C1=O` [PP2386], the “NRAS/KRAS (ratio of KD value with respect to NRAS to KD value with respect to KRAS)” value in assay [1] is “A (a compound having 10 or more and less than 20 is denoted as A)”. For the same compound, in assay [2], the “HRAS/KRAS (ratio of KD value with respect to HRAS to KD value with respect to KRAS)” value was “B (a compound having 3 or more and less than 10 is denoted as B)”.

The values are drawn from patent US20250230193A1, “CYCLIC COMPOUND HAVING SELECTIVE KRAS INHIBITORY EFFECT ON HRAS AND NRAS” (CHUGAI SEIYAKU KABUSHIKI KAISHA, priority 2022, published 2025).
